Assay results reported in the NIST ThermoML archive (doi:10.1016/j.jct.2009.04.002).
Several values for one entry are separate records, joined by “and”; a condition that tells them apart may be missing. Equal values may be shown once.

Conditions: Liquid

CC(C)CCCCCCCOC(=O)c1ccccc1C(=O)OCCCCCCCC(C)C
Conditions | mass density, Vibrating tube method | viscosity, Falling or rolling sphere viscometry
333.15 K, 10000 kPa | 944.8 kg/m3 and 945.3 kg/m3 | –
333.15 K, 20000 kPa | 951 kg/m3 and 951.5 kg/m3 and 950.9 kg/m3 | 23.5 mPa·s and 22.4 mPa·s and 23.2 mPa·s
333.15 K, 30000 kPa | 956.7 kg/m3 and 957.1 kg/m3 and 956.6 kg/m3 | 28.2 mPa·s and 26.8 mPa·s and 27.8 mPa·s
333.15 K, 40000 kPa | 962.1 kg/m3 and 962.5 kg/m3 and 962 kg/m3 | 33.7 mPa·s and 31.9 mPa·s and 33.1 mPa·s
333.15 K, 50000 kPa | 967.2 kg/m3 and 967.6 kg/m3 and 967.1 kg/m3 | 40 mPa·s and 37.8 mPa·s and 39.3 mPa·s
333.15 K, 60000 kPa | 972.1 kg/m3 and 972.5 kg/m3 and 972 kg/m3 | 47.5 mPa·s and 44.5 mPa·s and 46.6 mPa·s
333.15 K, 70000 kPa | 976.7 kg/m3 and 977.1 kg/m3 and 976.6 kg/m3 | –
348.15 K, 100 kPa | 927.9 kg/m3 and 928.3 kg/m3 and 927.7 kg/m3 | –
348.15 K, 1000 kPa | 928.5 kg/m3 and 929 kg/m3 and 928.4 kg/m3 | –
348.15 K, 5000 kPa | 931.4 kg/m3 and 931.8 kg/m3 and 931.2 kg/m3 | –
348.15 K, 10000 kPa | 934.8 kg/m3 and 935.3 kg/m3 and 934.7 kg/m3 | –
348.15 K, 20000 kPa | 941.3 kg/m3 and 941.8 kg/m3 and 941.2 kg/m3 | –
348.15 K, 30000 kPa | 947.3 kg/m3 and 947.8 kg/m3 | –
348.15 K, 40000 kPa | 953 kg/m3 and 953.5 kg/m3 and 952.9 kg/m3 | –
348.15 K, 50000 kPa | 958.4 kg/m3 and 958.9 kg/m3 | –
348.15 K, 60000 kPa | 963.6 kg/m3 and 964 kg/m3 and 963.5 kg/m3 | –
348.15 K, 70000 kPa | 968.4 kg/m3 and 968.8 kg/m3 and 968.3 kg/m3 | –
353.15 K, 100 kPa | – | 8.42 mPa·s and 8.04 mPa·s and 8.35 mPa·s
353.15 K, 1000 kPa | – | 8.54 mPa·s and 8.16 mPa·s and 8.48 mPa·s
353.15 K, 5000 kPa | – | 9.14 mPa·s and 8.7 mPa·s and 9.06 mPa·s
353.15 K, 10000 kPa | – | 9.92 mPa·s and 9.43 mPa·s and 9.83 mPa·s
353.15 K, 20000 kPa | – | 11.7 mPa·s and 11 mPa·s and 11.5 mPa·s
353.15 K, 30000 kPa | – | 13.7 mPa·s and 12.9 mPa·s and 13.5 mPa·s
353.15 K, 40000 kPa | – | 16 mPa·s and 15.1 mPa·s and 15.8 mPa·s
353.15 K, 50000 kPa | – | 18.5 mPa·s and 17.5 mPa·s and 18.3 mPa·s
353.15 K, 60000 kPa | – | 21.5 mPa·s and 20.3 mPa·s and 21.2 mPa·s

Conditions | mass density, 333.15 K | mass density, 338.15 K | mass density, 343.15 K | mass density, 348.15 K | viscosity, 333.15 K | viscosity, 338.15 K | viscosity, 343.15 K | viscosity, 348.15 K
Rotational Automated Viscometer | – | – | – | – | 15.79 mPa·s and 16.02 mPa·s and 15.97 mPa·s | 13.21 mPa·s and 13.4 mPa·s and 13.36 mPa·s | 11.18 mPa·s and 11.34 mPa·s and 11.31 mPa·s | 9.561 mPa·s and 9.696 mPa·s and 9.685 mPa·s
SVM3000 rotational viscometer | 938.7 kg/m3 and 938.3 kg/m3 | 935.1 kg/m3 and 934.7 kg/m3 | 931.6 kg/m3 and 931.1 kg/m3 | 928 kg/m3 and 927.6 kg/m3 | – | – | – | –
